Measured values taken from patent publication US20240262826A1, “WILD TYPE KIT INHIBITORS” (Blueprint Medicines Corporation, priority 2022, published 2024).

What follows are compounds tested against wild type c-kit (Homo sapiens (Human), UniProt P10721) (assay: PathScan phospho c-kit (Tyr719) sandwich ELISA in SCF-stimulated M-07e cells (pKIT assay)). Conditions: ELISA assay (values not marked *).
Format: cell-based
Outline: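 Serum- and GM-CSF-starved M-07e cells (4 h) pretreated 60 min at 37 °C with an 8-point compound series in duplicate (0.25% DMSO), then stimulated with human SCF (500 ng/mL stock) 10 min at room temperature. Lysate c-kit Tyr719 phosphorylation quantified by sandwich ELISA with TMB read-out; IC50 from 4-parameter logistic fit.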

Chain of wild type c-kit (P10721 26-976): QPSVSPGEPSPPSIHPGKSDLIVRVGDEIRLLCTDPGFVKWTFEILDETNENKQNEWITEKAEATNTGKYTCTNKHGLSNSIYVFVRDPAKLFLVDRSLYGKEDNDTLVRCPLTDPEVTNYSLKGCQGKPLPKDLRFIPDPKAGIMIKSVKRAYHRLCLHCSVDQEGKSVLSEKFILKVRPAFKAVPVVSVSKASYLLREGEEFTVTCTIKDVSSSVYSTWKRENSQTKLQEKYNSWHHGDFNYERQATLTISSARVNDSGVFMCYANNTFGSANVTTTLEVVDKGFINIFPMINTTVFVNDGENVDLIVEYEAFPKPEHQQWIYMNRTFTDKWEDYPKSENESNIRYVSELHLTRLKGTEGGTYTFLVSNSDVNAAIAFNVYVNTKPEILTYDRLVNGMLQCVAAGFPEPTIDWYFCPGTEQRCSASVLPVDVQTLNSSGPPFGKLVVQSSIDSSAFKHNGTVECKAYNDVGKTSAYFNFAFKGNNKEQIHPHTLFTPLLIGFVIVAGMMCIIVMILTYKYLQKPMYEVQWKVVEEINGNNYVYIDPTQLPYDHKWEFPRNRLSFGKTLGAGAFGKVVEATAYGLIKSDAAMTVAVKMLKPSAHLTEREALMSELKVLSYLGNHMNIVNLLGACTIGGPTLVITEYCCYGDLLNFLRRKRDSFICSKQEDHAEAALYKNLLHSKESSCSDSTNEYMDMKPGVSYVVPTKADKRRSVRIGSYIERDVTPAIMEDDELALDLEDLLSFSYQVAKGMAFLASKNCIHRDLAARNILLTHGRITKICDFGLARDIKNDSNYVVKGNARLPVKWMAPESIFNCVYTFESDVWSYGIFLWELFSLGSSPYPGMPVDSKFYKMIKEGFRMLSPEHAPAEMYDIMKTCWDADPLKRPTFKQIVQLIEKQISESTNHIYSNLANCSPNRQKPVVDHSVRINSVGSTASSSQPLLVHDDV

IC50 [nM]	SMILES
23.4	COC(=O)N1CC(n2nnc(-c3cc(NC(=O)c4cnn5cc(OCCO)ccc45)c(C)cc3F)n2)C1 [Example 223, methyl 3-(5-(2-fluoro-5-(6-(2-hydroxyethoxy)pyrazolo[1,5-a]pyridine-3-carboxamido)-4-methylphenyl)-2H-tetrazol-2-yl)azetidine-1-carboxylate]
0.4	Cc1nn(C[C@@H](C)O)cc1-c1ccn2ncc(C(=O)Nc3cc(-c4nnn(C5CC5)n4)c(F)cc3Cl)c2c1 [Example 281, (R)—N-(2-chloro-5-(2-cyclopropyl-2H-tetrazol-5-yl)-4-fluorophenyl)-5-(1-(2-hydroxypropyl)-3-methyl-1H-pyrazol-4-yl)pyrazolo[1,5-a]pyridine-3-carboxamide]
7.4	Cn1nnc(-c2ccc(Cl)c(NC(=O)c3cnn4ccc(-c5cnn(CC(C)(C)O)c5)cc34)c2)n1 [Example 210, N-(2-chloro-5-(2-methyl-2H-tetrazol-5-yl)phenyl)-5-(1-(2-hydroxy-2-methylpropyl)-1H-pyrazol-4-yl)pyrazolo[1,5-a]pyridine-3-carboxamide]
29.6	O=C(Nc1cc(-c2nnn(CC34COC(C3)C4)n2)ccc1Cl)c1cnn2ccccc12 [Example 18, N-(5-(2-((2-oxabicyclo[2.1.1]hexan-4-yl)methyl)-2H-tetrazol-5-yl)-2-chlorophenyl)pyrazolo[1,5-a]pyridine-3-carboxamide]
34.5	COCCNc1ccn2ncc(C(=O)Nc3cc(-c4nnn(C)n4)ccc3C)c2c1 [Example 87, 5-((2-methoxyethyl)amino)-N-(2-methyl-5-(2-methyl-2H-tetrazol-5-yl)phenyl)pyrazolo[1,5-a]pyridine-3-carboxamide]
9.1	Cc1ccc(-c2nnn(C3CN(CC(F)(F)F)C3)n2)cc1NC(=O)c1cnn2ccccc12 [Example 196, N-(2-methyl-5-(2-(1-(2,2,2-trifluoroethyl)azetidin-3-yl)-2H-tetrazol-5-yl)phenyl)pyrazolo[1,5-a]pyridine-3-carboxamide]
20.1	COC(=O)N1CC(n2nnc(-c3ccc(C)c(NC(=O)c4cnn5cc(N6CCOCC6)ccc45)c3)n2)C1 [Example 159, methyl 3-(5-(4-methyl-3-(6-morpholinopyrazolo[1,5-a]pyridine-3-carboxamido)phenyl)-2H-tetrazol-2-yl)azetidine-1-carboxylate]
23.4	COCCNc1cc2c(C(=O)Nc3cc(-c4nnn(C5CN(C(=O)OC)C5)n4)ccc3C)cnn2cc1C [Example 144, methyl 3-(5-(3-(5-((2-methoxyethyl)amino)-6-methylpyrazolo[1,5-a]pyridine-3-carboxamido)-4-methylphenyl)-2H-tetrazol-2-yl)azetidine-1-carboxylate]
9.6	COC(=O)N1CC(n2nnc(-c3ccc(C)c(NC(=O)c4cnn5ccc(N6CCN7CCC[C@@H]7C6)cc45)c3)n2)C1 [Example 75, methyl (R)-3-(5-(3-(5-(hexahydropyrrolo[1,2-a]pyrazin-2(1H)-yl)pyrazolo[1,5-a]pyridine-3-carboxamido)-4-methylphenyl)-2H-tetrazol-2-yl)azetidine-1-carboxylate]
0.2	CCn1nnc(-c2cc(NC(=O)c3cnn4ccc(-c5cn(C[C@H](O)COC)nc5C)cc34)c(Cl)cc2F)n1 [Example 282, (S)—N-(2-chloro-5-(2-ethyl-2H-tetrazol-5-yl)-4-fluorophenyl)-5-(1-(2-hydroxy-3-methoxypropyl)-3-methyl-1H-pyrazol-4-yl)pyrazolo[1,5-a]pyridine-3-carboxamide]
12.4	COCCNc1ccn2ncc(C(=O)Nc3cc(-c4nnn(C5CN(C(=O)OC)C5)n4)ccc3F)c2c1 [Example 115, methyl 3-(5-(4-fluoro-3-(5-((2-methoxyethyl)amino)pyrazolo[1,5-a]pyridine-3-carboxamido)phenyl)-2H-tetrazol-2-yl)azetidine-1-carboxylate]
4.9	Cc1ccc(-c2nnn(C3CN(S(=O)(=O)C4CC4)C3)n2)cc1NC(=O)c1cnn2ccccc12 [Example 179, N-(5-(2-(1-(cyclopropylsulfonyl)azetidin-3-yl)-2H-tetrazol-5-yl)-2-methylphenyl)pyrazolo[1,5-a]pyridine-3-carboxamide]
0.3	Cc1nn(C(CO)CO)c(C)c1-c1ccn2ncc(C(=O)Nc3cc(-c4nnn(C5CC5)n4)ccc3Cl)c2c1 [Example 276, N-(2-chloro-5-(2-cyclopropyl-2H-tetrazol-5-yl)phenyl)-5-(1-(1,3-dihydroxypropan-2-yl)-3,5-dimethyl-1H-pyrazol-4-yl)pyrazolo[1,5-a]pyridine-3-carboxamide]
60.7	CCOC(=O)N1CC(n2nnc(-c3ccc(C)c(NC(=O)c4cnn5ccc(N6CCOCC6)cc45)c3)n2)C1 [Example 77, ethyl 3-(5-(4-methyl-3-(5-morpholinopyrazolo[1,5-a]pyridine-3-carboxamido)phenyl)-2H-tetrazol-2-yl)azetidine-1-carboxylate]
4.8	Cc1ccc(-c2nnn(CC3CC4(CCC4)CO3)n2)cc1NC(=O)c1cnn2ccccc12 (centres unmarked) [Example 9, N-(5-(2-((6-oxaspiro[3.4]octan-7-yl)methyl)-2H-tetrazol-5-yl)-2-methylphenyl)pyrazolo[1,5-a]pyridine-3-carboxamide]
6.2	Cc1ccc(-c2nnn(C3CN(S(=O)(=O)CCC(F)F)C3)n2)cc1NC(=O)c1cnn2ccccc12 [Example 184, N-(5-(2-(1-((3,3-difluoropropyl)sulfonyl)azetidin-3-yl)-2H-tetrazol-5-yl)-2-methylphenyl)pyrazolo[1,5-a]pyridine-3-carboxamide]
14.9	COC(=O)N1CC(c2cnn(-c3ccc(C)c(NC(=O)c4cnn5cc(N6CCOCC6)ccc45)c3)n2)C1 [Example 160, methyl 3-(2-(4-methyl-3-(6-morpholinopyrazolo[1,5-a]pyridine-3-carboxamido)phenyl)-2H-1,2,3-triazol-4-yl)azetidine-1-carboxylate]
9	Cc1ccc(-n2ncc(C3CC(F)(F)C3)n2)cc1NC(=O)c1cnn2ccccc12 [Example 161, N-(5-(4-(3,3-difluorocyclobutyl)-2H-1,2,3-triazol-2-yl)-2-methylphenyl)pyrazolo[1,5-a]pyridine-3-carboxamide]
7.2	COCCNc1ccn2ncc(C(=O)Nc3cc(-n4nnc(C5CN(C(=O)OC)C5)n4)ccc3C)c2c1 [Example 125, methyl 3-(2-(3-(5-((2-methoxyethyl)amino)pyrazolo[1,5-a]pyridine-3-carboxamido)-4-methylphenyl)-2H-tetrazol-5-yl)azetidine-1-carboxylate]
1.1	Cc1ccc(-c2nnn(C3CC3)n2)cc1NC(=O)c1cnn2ccc(-c3cnn(CCN4CCN(C)CC4)c3)cc12 [Example 219, N-(5-(2-cyclopropyl-2H-tetrazol-5-yl)-2-methylphenyl)-5-(1-(2-(4-methylpiperazin-1-yl)ethyl)-1H-pyrazol-4-yl)pyrazolo[1,5-a]pyridine-3-carboxamide]
27	COC(=O)N1CC(n2nnc(-c3cc(NC(=O)c4cnn5cc(N6CCOCC6)ccc45)c(C)cc3F)n2)C1 [Example 224, methyl 3-(5-(2-fluoro-4-methyl-5-(6-morpholinopyrazolo[1,5-a]pyridine-3-carboxamido)phenyl)-2H-tetrazol-2-yl)azetidine-1-carboxylate]
4.7	O=C(Nc1cc(-c2nnn(C3CC(F)(F)C3)n2)ccc1Cl)c1cnn2ccc(N3CCOCC3)cc12 [Example 169, N-(2-chloro-5-(2-(3,3-difluorocyclobutyl)-2H-tetrazol-5-yl)phenyl)-5-morpholinopyrazolo[1,5-a]pyridine-3-carboxamide]
26	Cc1ccc(-c2nnn(C)n2)cc1NC(=O)c1cnn2ccc(-c3cnn(CCCS(C)(=N)=O)c3)cc12 (centres unmarked) [Example 232, N-(2-methyl-5-(2-methyl-2H-tetrazol-5-yl)phenyl)-5-(1-(3-(S-methylsulfonimidoyl)propyl)-1H-pyrazol-4-yl)pyrazolo[1,5-a]pyridine-3-carboxamide]
6.5	O=C(Nc1cc(-c2nnn(C3CC(F)(F)C3)n2)ccc1Cl)c1cnn2ccccc12 [Example 17, N-(2-chloro-5-(2-(3,3-difluorocyclobutyl)-2H-tetrazol-5-yl)phenyl)pyrazolo[1,5-a]pyridine-3-carboxamide]
0.4	Cc1cc(F)c(-c2nnn(C3CC3)n2)cc1NC(=O)c1cnn2ccc(-c3cn(C[C@@H](O)C(C)(C)O)nc3C3CC3)cc12 [Example 259, (R)-5-(3-cyclopropyl-1-(2,3-dihydroxy-3-methylbutyl)-1H-pyrazol-4-yl)-N-(5-(2-cyclopropyl-2H-tetrazol-5-yl)-4-fluoro-2-methylphenyl)pyrazolo[1,5-a]pyridine-3-carboxamide]
1.8	Cc1ccc(-c2nnn(C3CC(F)(F)C3)n2)cc1NC(=O)c1cnn2ccc(N3CC(O)C3)cc12 [Example 60, N-(5-(2-(3,3-difluorocyclobutyl)-2H-tetrazol-5-yl)-2-methylphenyl)-5-(3-hydroxyazetidin-1-yl)pyrazolo[1,5-a]pyridine-3-carboxamide]
53.8	COC[C@@H](C)Nc1ccn2ncc(C(=O)Nc3cc(-c4nnn(C5CN(C(=O)OC)C5)n4)ccc3C)c2c1 [Example 135, methyl (R)-3-(5-(3-(5-((1-methoxypropan-2-yl)amino)pyrazolo[1,5-a]pyridine-3-carboxamido)-4-methylphenyl)-2H-tetrazol-2-yl)azetidine-1-carboxylate]
6.4	Cc1cc(C)c(-c2nnn(CC3CC3(F)F)n2)cc1NC(=O)c1cnn2ccccc12 (centres unmarked) [Example 21, N-(5-(2-((2,2-difluorocyclopropyl)methyl)-2H-tetrazol-5-yl)-2,4-dimethylphenyl)pyrazolo[1,5-a]pyridine-3-carboxamide]

SMILES	IC50 [nM]
COC(=O)N1CC(n2nnc(-c3ccc(C)c(NC(=O)c4cnn5ccc(NCC(F)F)cc45)c3)n2)C1 [Example 131, methyl 3-(5-(3-(5-((2,2-difluoroethyl)amino)pyrazolo[1,5-a]pyridine-3-carboxamido)-4-methylphenyl)-2H-tetrazol-2-yl)azetidine-1-carboxylate]	49
